Assay results taken from PMC4824752 (Structure (London, England : 1993), 2015).

What was measured:
[1] = biological target: wild type ELIC (Dickeya chrysanthemi, UniProt P0C7B7); type: cell-based; settings: read-out: EC50, concentration of cysteamine to elicit half maximal channel gating, oocytes, whole cell currents
[2] = test system: ELIC with the entire aromatic network of GLIC; type: cell-based; settings: read-out: EC50, concentration of cysteamine to elicit half maximal channel gating, oocytes
[3] = biological target: ELIC I319F/V260Y (Dickeya chrysanthemi, UniProt P0C7B7, I319F/V260Y); type: cell-based; settings: read-out: EC50, concentration of cysteamine to elicit half maximal channel gating; ELIC I319F/V260Y double mutant, oocytes
[4] = biological target: ELIC G318F/V260Y (Dickeya chrysanthemi, UniProt P0C7B7, G318F/V260Y); type: cell-based; settings: read-out: EC50, concentration of cysteamine to elicit half maximal channel gating; ELIC G318F/V260Y double mutant, oocytes
[5] = biological target: ELIC L308W (Dickeya chrysanthemi, UniProt P0C7B7, L308W); assay: Two-electrode voltage clamp dose response to cysteamine, ELIC L308W mutant; type: cell-based
[6] = test system: human muscle-type nAChR C418W; type: cell-based; settings: C418W relative to wild type
[7] = test system: GLIC aromatic-to-Ala mutants at the M4-M1/M3 interface; settings: Fig. S4
[8] = test system: ELIC aliphatic-to-aromatic mutants at the M4-M1/M3 interface; settings: Fig. S4

NCCS [cysteamine]
EC50 [1]: 940 ± 160 µM
EC50 [2]: 150 ± 40 µM
EC50 [3]: 130 µM
EC50 [4]: 130 µM
magnitude of the L308W gain of function relative to the wild type ELIC ([5]; L308W relative to wild type ELIC): ~5 fold
EC50 ([5]; read-out: EC50, concentration of cysteamine to elicit half maximal channel gating, ELIC L308W, oocytes): 290 ± 50 µM

CC(=O)OCC[N+](C)(C)C [acetylcholine]
potentiation of nAChR channel function by C418W (EC50 wild type vs C418W) [6]: roughly 25 fold

CC(C)c1cccc(C(C)C)c1O [propofol, 2,6 diisopropylphenol]
effect of aromatic-to-Ala substitutions on propofol inhibition [7]: None of the aromatic-to-Ala substitutions at the M4-M1/M3 interface of GLIC or the aliphatic-to-aromatic substitutions at the same interface in ELIC, however, had a major effect on propofol inhibition
effect of aliphatic-to-aromatic substitutions on propofol inhibition [8]: None of the aromatic-to-Ala substitutions at the M4-M1/M3 interface of GLIC or the aliphatic-to-aromatic substitutions at the same interface in ELIC, however, had a major effect on propofol inhibition
